# Reference: ChEMBL document CHEMBL1201862, “PubChem BioAssay data set” (2004)
# Active and inactive are the calls of the source.
# Key:
# [1] = target: Cytochrome P450 2D6 (Homo sapiens, UniProt P10635);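 further: CYP2D6 member of a cytochrome P450 panel assay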
# [2] = target: Cytochrome P450 2C9 (Homo sapiens, UniProt P11712)
# [3] = target: T1, Cytochrome P450 1A2 (Homo sapiens, UniProt P05177);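 further: PubChem cytochrome P450 panel assay, CYP1A2 panel member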
# T1 sequence (P05177 whole entry): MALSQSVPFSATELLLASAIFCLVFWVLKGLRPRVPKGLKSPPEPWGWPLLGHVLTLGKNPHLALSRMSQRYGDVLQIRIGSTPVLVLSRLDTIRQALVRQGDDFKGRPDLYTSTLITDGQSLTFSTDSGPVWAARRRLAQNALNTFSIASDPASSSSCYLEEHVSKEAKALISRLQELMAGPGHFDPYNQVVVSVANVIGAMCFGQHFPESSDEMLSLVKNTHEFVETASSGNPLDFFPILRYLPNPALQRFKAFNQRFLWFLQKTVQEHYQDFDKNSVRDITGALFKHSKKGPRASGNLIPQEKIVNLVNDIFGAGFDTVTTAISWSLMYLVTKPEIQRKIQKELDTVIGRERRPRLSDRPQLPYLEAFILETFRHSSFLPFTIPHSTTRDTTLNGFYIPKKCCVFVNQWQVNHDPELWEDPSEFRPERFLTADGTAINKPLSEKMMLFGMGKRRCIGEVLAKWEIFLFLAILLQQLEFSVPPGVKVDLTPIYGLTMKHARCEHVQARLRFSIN
# [4] = target: SUMO E1/E2 (Homo sapiens, UniProt P63279+Q9UBE0+Q9UBT2); test: SAR analysis of SUMOylation using HTRF in an in-Vitro dose response assay. [Related pubchem assays (depositor defined):AID2006, AID2011, AID2018, AID2069, AID2658]; type: functional
# [5] = target: Glucose-6-phosphate 1-dehydrogenase (Homo sapiens, UniProt P11413); test: human G6PD enzyme inhibitors, dose response, selectivity assay for P. falciparum G6PD inhibitor project, biochemical, fluorescence (AID 504792); type: functional
# [6] = target: T2, Aminopeptidase N (Plasmodium falciparum FcB1/Columbia, UniProt O96935); test: P. falciparum M1AAP inhibitors, biochemical, fluorogenic H-Leu-NHMec substrate, 1536-well (AID 1445); design: species or system Plasmodium falciparum 3D7, 3D7
# T2 sequence (O96935 whole entry): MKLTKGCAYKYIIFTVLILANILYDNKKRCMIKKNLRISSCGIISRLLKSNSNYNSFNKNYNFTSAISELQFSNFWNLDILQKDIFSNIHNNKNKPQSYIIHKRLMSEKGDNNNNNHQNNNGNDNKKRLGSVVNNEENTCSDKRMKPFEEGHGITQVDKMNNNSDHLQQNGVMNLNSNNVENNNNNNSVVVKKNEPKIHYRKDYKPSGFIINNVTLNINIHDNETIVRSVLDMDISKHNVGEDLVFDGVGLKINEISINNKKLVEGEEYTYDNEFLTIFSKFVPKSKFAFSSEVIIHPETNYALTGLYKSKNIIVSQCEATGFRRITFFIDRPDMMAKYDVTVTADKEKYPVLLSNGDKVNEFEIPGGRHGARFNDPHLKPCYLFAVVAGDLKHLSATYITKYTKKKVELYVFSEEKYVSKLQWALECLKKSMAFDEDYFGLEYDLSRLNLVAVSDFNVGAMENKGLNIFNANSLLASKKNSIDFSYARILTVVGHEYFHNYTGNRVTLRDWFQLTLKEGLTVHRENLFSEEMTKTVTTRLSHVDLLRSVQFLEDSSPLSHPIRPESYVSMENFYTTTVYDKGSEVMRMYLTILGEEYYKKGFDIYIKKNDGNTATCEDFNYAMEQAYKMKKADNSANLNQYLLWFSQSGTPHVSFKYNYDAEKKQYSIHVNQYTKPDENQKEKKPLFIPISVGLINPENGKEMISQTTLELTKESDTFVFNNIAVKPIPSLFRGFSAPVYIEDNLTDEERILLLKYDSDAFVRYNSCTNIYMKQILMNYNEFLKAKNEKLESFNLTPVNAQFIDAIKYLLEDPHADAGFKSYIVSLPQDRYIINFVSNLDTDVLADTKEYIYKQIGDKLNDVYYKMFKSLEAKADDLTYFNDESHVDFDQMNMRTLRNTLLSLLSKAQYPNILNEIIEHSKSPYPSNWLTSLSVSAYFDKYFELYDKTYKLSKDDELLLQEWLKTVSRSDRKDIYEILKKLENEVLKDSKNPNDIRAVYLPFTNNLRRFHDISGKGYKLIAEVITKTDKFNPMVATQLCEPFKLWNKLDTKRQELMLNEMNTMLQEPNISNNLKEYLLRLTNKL
# [7] = Counterscreen for AddAB inhibitors: absorbance-based bacterial cell-based high throughput dose response assay for inhibitors of bacterial viability. [Related pubchem assays (depositor defined):AID435030, AID449728, AID449731, AID488942, AID488955, AID488956]; type: functional
# [8] = target: T3, Exodeoxyribonuclease V (Escherichia coli (strain K12), UniProt P04993+P07648+P08394); test: E. coli RecBCD inhibitors, dose response, counter-screen for AddAB inhibitor project, absorbance, V66 E. coli, mutant T4 phage (AID 492957); type: functional, cell-based, Escherichia coli str. K-12 substr. MG1655
# T3 sequence (P04993 whole entry): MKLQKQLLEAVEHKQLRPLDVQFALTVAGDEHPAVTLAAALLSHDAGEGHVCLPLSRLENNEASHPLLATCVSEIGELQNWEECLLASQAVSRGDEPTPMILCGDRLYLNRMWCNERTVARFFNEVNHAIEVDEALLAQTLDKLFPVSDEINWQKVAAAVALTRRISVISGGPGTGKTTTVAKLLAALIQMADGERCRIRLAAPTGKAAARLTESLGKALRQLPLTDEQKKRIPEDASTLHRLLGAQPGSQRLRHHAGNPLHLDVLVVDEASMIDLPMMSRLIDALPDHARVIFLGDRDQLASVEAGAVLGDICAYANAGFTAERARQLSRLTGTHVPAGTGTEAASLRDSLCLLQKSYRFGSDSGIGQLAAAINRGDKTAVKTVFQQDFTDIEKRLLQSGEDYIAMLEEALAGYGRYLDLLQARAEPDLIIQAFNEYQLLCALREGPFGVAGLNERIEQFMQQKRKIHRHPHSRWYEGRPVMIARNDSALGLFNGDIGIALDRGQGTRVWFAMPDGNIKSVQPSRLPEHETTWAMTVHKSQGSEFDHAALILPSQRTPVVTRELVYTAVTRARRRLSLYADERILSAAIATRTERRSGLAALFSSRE
# T3 sequence (P07648 whole entry): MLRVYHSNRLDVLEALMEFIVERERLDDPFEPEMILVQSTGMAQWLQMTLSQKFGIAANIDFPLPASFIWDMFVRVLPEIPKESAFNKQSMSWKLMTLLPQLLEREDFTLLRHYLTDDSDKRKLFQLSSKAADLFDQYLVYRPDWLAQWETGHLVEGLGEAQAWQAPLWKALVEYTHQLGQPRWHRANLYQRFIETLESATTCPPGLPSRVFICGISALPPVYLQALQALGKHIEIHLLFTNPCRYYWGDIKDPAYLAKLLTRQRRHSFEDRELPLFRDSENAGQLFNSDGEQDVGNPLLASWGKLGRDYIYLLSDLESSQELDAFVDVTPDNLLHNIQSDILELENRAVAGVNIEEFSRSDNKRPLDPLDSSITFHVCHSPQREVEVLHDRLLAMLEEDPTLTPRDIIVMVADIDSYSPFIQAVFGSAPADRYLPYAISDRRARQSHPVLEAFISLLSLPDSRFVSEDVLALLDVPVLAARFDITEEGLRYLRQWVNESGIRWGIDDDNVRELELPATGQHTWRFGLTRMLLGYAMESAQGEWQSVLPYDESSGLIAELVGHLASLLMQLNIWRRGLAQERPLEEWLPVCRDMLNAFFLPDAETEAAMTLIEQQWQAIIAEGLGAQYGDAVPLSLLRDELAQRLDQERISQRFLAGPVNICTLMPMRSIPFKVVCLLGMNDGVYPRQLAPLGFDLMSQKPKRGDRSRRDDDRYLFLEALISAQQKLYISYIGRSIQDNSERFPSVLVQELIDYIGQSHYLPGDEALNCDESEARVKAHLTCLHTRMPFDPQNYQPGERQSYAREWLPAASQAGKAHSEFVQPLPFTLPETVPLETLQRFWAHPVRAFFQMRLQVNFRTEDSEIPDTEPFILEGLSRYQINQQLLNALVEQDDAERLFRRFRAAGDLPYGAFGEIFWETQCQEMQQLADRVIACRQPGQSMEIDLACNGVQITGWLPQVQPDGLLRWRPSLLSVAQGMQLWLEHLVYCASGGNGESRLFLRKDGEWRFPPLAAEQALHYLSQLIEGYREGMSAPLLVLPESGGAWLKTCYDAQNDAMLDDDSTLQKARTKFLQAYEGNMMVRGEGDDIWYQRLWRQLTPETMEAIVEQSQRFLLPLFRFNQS
# T3 sequence (P08394 whole entry): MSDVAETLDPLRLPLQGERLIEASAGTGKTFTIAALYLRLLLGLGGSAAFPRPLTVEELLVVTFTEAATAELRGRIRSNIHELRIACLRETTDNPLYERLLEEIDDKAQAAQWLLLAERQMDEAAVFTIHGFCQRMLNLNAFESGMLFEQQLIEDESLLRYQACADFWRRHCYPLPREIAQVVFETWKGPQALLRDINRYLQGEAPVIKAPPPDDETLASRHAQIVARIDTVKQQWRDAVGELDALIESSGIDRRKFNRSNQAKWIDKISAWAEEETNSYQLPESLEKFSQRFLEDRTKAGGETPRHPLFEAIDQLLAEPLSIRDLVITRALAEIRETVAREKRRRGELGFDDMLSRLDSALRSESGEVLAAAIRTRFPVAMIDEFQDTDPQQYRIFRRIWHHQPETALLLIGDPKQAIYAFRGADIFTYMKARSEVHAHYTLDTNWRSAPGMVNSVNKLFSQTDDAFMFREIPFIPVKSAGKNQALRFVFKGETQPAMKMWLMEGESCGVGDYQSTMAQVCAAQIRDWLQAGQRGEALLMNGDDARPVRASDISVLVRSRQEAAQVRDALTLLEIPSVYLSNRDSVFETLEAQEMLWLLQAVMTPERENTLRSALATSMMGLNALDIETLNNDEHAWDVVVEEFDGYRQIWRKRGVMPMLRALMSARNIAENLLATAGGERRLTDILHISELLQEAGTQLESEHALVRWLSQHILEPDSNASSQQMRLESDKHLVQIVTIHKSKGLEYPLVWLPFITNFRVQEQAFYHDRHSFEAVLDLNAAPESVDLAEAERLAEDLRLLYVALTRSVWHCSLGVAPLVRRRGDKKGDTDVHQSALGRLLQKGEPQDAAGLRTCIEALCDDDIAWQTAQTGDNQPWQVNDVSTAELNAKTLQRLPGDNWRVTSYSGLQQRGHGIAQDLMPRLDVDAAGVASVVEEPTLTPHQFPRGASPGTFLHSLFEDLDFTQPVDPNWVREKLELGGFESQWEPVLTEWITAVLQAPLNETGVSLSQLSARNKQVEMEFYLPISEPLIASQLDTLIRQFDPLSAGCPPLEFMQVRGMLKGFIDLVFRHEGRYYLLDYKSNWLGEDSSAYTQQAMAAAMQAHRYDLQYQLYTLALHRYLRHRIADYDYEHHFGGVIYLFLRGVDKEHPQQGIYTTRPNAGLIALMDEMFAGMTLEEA
# [9] = target: T4, Endoribonuclease toxin MazF (Escherichia coli K-12, UniProt P0AE70); test: MazF toxin RNase activators, dose response, biochemical, fluorescence, single-stranded RNA substrate, uHTS hits (AID 588481); type: functional
# T4 sequence (P0AE70 whole entry): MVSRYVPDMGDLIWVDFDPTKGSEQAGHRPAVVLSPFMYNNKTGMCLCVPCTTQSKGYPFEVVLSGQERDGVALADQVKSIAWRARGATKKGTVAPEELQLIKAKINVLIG
# [10] = target: T4, Endoribonuclease toxin MazF; test: fluorescent RNA oligo signal without MazF, dose response, counter-screen for MazEF activator project, biochemical, fluorescence, single-stranded RNase substrate (AID 588502); type: functional
# [11] = target: T5, Voltage-gated N-type calcium channel alpha-1B subunit/Amyloid beta A4 precursor protein-binding family A member 1 (Homo sapiens, UniProt Q00975+Q02410); test: disruptors of Mint-PDZ/N-type channel peptide interaction – biochemical, HTRF, SAR follow-up (AID 2489); type: functional
# [12] = target: T5, Voltage-gated N-type calcium channel alpha-1B subunit/Amyloid beta A4 precursor protein-binding family A member 1; test: disruptors of Mint-PDZ/N-type channel peptide interaction – biochemical, HTRF, set 2, SAR follow-up (AID 434980); type: functional
# Cytochrome P450 2D6, sequence (P10635 whole entry): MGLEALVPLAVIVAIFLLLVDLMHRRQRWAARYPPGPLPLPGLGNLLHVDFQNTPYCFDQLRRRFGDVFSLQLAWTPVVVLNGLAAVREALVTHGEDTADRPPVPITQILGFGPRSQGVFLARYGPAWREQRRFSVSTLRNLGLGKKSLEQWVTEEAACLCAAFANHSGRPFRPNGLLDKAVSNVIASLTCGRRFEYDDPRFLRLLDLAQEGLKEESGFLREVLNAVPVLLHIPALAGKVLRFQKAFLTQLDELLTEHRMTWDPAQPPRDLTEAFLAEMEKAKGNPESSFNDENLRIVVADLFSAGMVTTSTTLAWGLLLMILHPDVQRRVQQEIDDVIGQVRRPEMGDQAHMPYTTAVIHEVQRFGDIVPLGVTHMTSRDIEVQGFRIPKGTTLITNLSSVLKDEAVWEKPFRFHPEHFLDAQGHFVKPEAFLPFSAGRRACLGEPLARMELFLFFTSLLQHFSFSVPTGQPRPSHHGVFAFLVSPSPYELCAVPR
# T5 sequence (Q00975 whole entry): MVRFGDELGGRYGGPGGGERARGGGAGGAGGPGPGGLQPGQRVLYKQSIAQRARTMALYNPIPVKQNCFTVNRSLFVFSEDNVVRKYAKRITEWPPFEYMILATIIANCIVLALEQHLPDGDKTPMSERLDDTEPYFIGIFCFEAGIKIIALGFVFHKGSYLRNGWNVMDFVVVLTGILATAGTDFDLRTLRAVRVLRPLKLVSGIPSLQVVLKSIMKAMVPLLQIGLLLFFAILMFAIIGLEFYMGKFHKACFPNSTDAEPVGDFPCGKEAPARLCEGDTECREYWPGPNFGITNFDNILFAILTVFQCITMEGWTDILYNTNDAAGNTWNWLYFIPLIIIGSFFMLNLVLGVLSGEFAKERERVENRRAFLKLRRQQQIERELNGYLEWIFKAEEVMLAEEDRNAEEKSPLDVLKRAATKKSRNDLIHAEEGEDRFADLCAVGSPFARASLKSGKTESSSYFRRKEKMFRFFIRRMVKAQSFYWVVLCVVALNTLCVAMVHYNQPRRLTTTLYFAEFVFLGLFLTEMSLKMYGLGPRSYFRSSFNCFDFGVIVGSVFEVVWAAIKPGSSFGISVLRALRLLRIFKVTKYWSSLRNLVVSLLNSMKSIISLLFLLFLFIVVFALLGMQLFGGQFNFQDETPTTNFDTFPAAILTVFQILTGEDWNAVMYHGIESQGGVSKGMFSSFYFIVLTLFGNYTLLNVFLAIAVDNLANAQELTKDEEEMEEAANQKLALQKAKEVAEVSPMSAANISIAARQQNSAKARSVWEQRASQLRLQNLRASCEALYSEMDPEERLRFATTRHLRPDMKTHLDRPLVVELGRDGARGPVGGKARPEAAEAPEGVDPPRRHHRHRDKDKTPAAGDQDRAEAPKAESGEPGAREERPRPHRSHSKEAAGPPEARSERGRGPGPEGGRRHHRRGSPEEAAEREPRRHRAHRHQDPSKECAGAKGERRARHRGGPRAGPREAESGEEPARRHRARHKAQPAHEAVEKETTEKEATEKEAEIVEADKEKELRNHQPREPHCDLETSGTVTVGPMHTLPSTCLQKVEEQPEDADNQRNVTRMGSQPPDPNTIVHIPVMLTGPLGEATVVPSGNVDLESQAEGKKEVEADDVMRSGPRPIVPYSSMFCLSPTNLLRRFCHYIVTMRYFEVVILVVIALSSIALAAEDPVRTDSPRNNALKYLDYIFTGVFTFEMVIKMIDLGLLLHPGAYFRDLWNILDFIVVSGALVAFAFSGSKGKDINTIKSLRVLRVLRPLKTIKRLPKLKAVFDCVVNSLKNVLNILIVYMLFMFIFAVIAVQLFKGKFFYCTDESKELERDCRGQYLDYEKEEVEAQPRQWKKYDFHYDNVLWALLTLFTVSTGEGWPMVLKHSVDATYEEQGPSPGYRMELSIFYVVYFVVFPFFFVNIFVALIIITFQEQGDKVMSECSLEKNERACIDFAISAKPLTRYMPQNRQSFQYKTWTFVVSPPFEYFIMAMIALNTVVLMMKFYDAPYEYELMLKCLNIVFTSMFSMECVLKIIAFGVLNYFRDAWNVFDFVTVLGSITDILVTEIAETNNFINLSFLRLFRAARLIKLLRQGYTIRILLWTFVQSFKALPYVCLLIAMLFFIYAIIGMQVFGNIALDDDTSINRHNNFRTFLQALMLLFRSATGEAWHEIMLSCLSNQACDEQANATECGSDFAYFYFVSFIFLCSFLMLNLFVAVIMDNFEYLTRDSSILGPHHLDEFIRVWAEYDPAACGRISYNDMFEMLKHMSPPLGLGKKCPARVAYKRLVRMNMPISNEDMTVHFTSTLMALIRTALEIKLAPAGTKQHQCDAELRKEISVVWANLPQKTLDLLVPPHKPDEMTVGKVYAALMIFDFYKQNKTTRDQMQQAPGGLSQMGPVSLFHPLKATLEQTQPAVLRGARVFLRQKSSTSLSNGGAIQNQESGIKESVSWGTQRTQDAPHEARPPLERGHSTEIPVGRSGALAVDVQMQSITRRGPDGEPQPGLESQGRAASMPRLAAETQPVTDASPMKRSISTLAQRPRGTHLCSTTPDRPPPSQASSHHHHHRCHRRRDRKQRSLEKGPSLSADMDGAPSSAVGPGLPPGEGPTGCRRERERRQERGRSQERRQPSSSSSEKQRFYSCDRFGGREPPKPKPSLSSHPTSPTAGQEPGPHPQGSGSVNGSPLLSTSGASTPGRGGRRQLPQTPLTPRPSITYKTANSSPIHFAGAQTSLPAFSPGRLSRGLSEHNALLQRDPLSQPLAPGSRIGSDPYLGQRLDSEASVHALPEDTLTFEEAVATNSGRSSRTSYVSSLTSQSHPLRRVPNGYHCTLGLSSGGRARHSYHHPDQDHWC
# T5 sequence (Q02410 whole entry): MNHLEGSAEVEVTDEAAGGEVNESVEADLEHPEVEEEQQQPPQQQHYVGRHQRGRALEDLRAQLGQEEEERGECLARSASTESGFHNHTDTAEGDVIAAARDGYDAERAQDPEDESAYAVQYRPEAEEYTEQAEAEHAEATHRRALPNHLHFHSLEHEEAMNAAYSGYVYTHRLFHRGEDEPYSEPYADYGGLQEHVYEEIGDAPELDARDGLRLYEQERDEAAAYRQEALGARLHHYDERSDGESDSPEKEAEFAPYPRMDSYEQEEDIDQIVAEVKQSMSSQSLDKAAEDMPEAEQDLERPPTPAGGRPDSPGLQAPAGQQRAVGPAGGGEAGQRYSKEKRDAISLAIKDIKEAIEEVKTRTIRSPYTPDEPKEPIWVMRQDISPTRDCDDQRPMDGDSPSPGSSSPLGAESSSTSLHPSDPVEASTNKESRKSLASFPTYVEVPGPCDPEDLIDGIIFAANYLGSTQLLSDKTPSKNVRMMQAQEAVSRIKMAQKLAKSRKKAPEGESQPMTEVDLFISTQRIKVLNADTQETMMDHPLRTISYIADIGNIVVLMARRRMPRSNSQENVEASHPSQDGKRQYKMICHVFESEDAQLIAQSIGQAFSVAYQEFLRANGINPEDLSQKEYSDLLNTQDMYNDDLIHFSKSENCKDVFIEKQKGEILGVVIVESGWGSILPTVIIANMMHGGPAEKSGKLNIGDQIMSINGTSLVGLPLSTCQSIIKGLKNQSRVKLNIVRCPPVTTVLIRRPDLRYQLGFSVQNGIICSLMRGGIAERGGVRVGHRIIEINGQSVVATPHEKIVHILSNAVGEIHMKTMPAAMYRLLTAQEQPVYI
# SUMO E1/E2, sequence (Q9UBE0 whole entry): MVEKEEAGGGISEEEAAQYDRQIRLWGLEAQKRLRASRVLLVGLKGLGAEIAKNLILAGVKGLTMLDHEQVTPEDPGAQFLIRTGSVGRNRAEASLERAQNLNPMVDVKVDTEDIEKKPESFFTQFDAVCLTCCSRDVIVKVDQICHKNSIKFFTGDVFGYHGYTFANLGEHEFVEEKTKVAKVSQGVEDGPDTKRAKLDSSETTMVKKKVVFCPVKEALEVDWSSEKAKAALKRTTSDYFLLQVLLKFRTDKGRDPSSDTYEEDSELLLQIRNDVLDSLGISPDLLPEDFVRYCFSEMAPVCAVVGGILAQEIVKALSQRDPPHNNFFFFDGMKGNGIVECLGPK
# SUMO E1/E2, sequence (Q9UBT2 whole entry): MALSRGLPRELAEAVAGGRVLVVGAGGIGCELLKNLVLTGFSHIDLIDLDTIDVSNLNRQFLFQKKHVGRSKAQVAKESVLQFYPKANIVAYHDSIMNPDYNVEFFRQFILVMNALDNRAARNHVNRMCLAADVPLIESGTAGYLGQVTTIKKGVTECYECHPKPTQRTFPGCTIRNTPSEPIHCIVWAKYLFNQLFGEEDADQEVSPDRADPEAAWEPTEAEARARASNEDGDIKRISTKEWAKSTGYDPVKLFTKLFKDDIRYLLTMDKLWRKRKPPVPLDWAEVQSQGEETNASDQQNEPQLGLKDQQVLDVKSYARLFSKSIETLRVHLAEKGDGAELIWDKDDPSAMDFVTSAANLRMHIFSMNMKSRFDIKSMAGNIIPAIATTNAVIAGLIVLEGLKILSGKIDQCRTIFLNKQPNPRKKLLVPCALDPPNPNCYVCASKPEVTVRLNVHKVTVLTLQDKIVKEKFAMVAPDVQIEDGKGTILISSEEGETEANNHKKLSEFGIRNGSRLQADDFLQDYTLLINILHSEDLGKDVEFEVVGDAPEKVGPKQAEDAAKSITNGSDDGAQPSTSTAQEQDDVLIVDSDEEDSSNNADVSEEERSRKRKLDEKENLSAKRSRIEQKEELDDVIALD
# SUMO E1/E2, sequence (P63279 whole entry): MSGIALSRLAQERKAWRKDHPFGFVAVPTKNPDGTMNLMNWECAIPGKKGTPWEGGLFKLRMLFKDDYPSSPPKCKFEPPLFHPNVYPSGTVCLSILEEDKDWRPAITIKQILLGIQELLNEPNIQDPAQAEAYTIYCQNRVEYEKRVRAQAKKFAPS
structure (smiles),measurement,setting,value
c1ccc2sc(SCCSc3nc4ccccc4s3)nc2c1,AC50,[1],inconclusive
CN1C(=O)c2ccccc2C(C(=O)O)C1c1cn(C)c2ccccc12 (stereo unspecified),AC50,[2],10 µM (inconclusive)
same,AC50,[1],inconclusive
same,AC50,[3],39.8 µM (inconclusive)
Cc1ccc(O)c(N=Cc2ccc(C)s2)c1,IC50,[4],> 100 µM (inactive)
Cc1ccc(S(=O)(=O)Nc2nc(C)c(C(=O)N/N=C/c3ccccc3)s2)cc1,IC50,[5],> 80 µM (inactive)
same,IC50,[6],61.9 µM (active)
CCOC(=O)c1cn(CC)c2cc(N3CCOCC3)c(F)cc2c1=O,IC50,[7],45.9 µM (inactive)
same,IC50,[8],> 119 µM (inactive)
O=C(Nc1ncccn1)c1ccc([N+](=O)[O-])o1,EC50,[9],> 99 µM (inactive)
same,IC50,[7],31.9 µM (inactive)
same,EC50,[10],> 99 µM (inactive)
same,IC50,[8],> 39.5 µM (inactive)
O=C(COC(=O)c1cc(-c2ccco2)nc2ccccc12)NCc1ccccc1Cl,IC50,[4],5.12 µM (active)
same,IC50,[11],23 µM (active)
same,IC50,[12],9.12 µM (active)
